Data published in patent US20100222421A1, “Usage of Baicalein in the Preparation of a Pharmaceutical Composition for the Treatment of Traumatic Brain Injury” (National Defense Medical Center, priority 2009, published 2010).

Key:
[1] = system: rats with controlled cortical impact (CCI) injury; assay: Modified neurological severity score (mNSS) after CCI injury; format: in vivo, rat; conditions: P<0.05
Protocol: A previously described CCI injury procedure was utilized (Chen et al., 2003). Male Sprague-Dawley rats, which have body weight of 250-300 g, were anaesthetized with sodium pentobarbital (i.p.; 50 mgkg^−1; Rhone Merieux, Harlow, UK) and placed in a stereotaxic frame. A 5-mm craniotomy was performed over the left parietal cortex, centered on the coronal suture and 3 mm lateral to the sagittal suture. Considerable care was taken to avoid injury to the underlying dura. Injury was made using a pneumatic piston with a rounded metal tip (2.5 mm diameter) that was angled 22.5° C. to the vertical so that the tip was perpendicular with the brain surface at the centre of the craniotomy. A velocity of 4 ms^−1 and a deformation depth 2 mm below the dura were used. The bone flap was immediately replaced and sealed, and the scalp was closed with sutures. Body temperature was monitored throughout the surgery by a rectal probe; temperature was maintained at 37.0±0.5° C. using a heated pad. Rats were placed in a heated cage to maintain body temperature, while recovering from anaesthesia. Baicalein (30 mg kg^−1) dissolved in 10% dimethyl sulphoxide (0.25-0.3 mL) or a corresponding volume of vehicle (10% dimethyl sulphoxide) was administered i.p. immediately following injury or daily for 4 days (immediately, 25, 49 and 73 h) after injury. Behaviour testing using the rotarod, tactile adhesive removal, mNSS and beam walk tests was performed at […] as well as 4, 7, 14, 21 and 28 days post-injury. At 14 and 28 days, the animals were killed, perfused intravascularly and their brains were processed with cresyl violet staining to assess contusion volume (n=8 for each group). […] Behaviour testing was performed before CCI and at […] after CCI by an observer who was unaware of the experimental treatments. The battery of tests consisted of the rotarod motor test, tactile adhesive-removal somatosensory test, mNSS and beam walk test. […] One point was scored for the inability to perform the test or for the lack of a tested reflex; thus, the higher the score, the more severe the injury. […]

TNF-α-positive cells = assay: Immunohistochemistry, TNF-α-positive cells after CCI injury; format: in vivo, rat; conditions: single-dose 30 mg kg^-1 i.p.; cortical tissue adjacent to contusion core, 1 day post-injury
Protocol: A previously described CCI injury procedure was utilized (Chen et al., 2003). Male Sprague-Dawley rats, which have body weight of 250-300 g, were anaesthetized with sodium pentobarbital (i.p.; 50 mgkg^−1; Rhone Merieux, Harlow, UK) and placed in a stereotaxic frame. A 5-mm craniotomy was performed over the left parietal cortex, centered on the coronal suture and 3 mm lateral to the sagittal suture. Considerable care was taken to avoid injury to the underlying dura. Injury was made using a pneumatic piston with a rounded metal tip (2.5 mm diameter) that was angled 22.5° C. to the vertical so that the tip was perpendicular with the brain surface at the centre of the craniotomy. A velocity of 4 ms^−1 and a deformation depth 2 mm below the dura were used. The bone flap was immediately replaced and sealed, and the scalp was closed with sutures. Body temperature was monitored throughout the surgery by a rectal probe; temperature was maintained at 37.0±0.5° C. using a heated pad. […] Testing after injury was as follows: (1) real-time quantitative RT-PCR analysis for TNF-α, IL-1β and IL-6 mRNA expression at 6 h post-injury (n=7 for each group); (2) FluoroJade B (FJB) staining, TNF-α, IL-1β and IL-6 immunohistochemistry, as well as ELISA at 24 h post-injury to assess degenerative neurons and to determine cytokine expression (n=7 for each group). […]

SMILES: O=c1cc(-c2ccccc2)oc2cc(O)c(O)c(O)c12 [baicalein]
- mNSS neurological deficit, multiple-dose versus single-dose treatment ([1]; 30 mg kg^-1 i.p., days 4 and 7 after injury): significantly greater reduction
- mNSS scores versus vehicle-treated group ([1]; multiple-dose 30 mg kg^-1 i.p. daily for 4 days, days 1-28): significantly less
- mNSS scores versus vehicle-treated group ([1]; single-dose 30 mg kg^-1 i.p., days 1-14): significantly less
- reduction in TNF-α-positive cells relative to vehicle (TNF-α-positive cells): 37%
